From US8227407B2, “Macrocyclic inhibitors of hepatitis C virus” (Medivir AB, priority 2008, dated 2012)

Experiments:
[1] = test system: HCV replicons (Huh-7 luc/neo cells, NS3-NS5B regions of HCV type 1b); assay: HCV replicon assay (Huh-Luc cells, luciferase readout); type: cell-based; conditions: Hepatitis C virus, Huh-7, 72 h, three days incubation, luciferase activity
Procedure: The in vitro antiviral activity against HCV of the compounds of formula (I) was tested in a cellular HCV replicon system based on Lohmann et al. (1999) Science 285:110-113, with the further modifications described by Krieger et al. (2001) Journal of Virology 75: 4614-4624, which is further exemplified in the examples section. This model, while not a complete infection model for HCV, is widely accepted as the most robust and efficient model of autonomous HCV RNA replication currently available. […] It will be appreciated that it is important to distinguish between compounds that specifically interfere with HCV functions from those that exert cytotoxic or cytostatic effects in the HCV replicon model, and as a consequence cause a decrease in HCV RNA or linked reporter enzyme concentration. […]
The replicon cells were plated in 384 well plates in the presence of the test and control compounds which were added in various concentrations. Following an incubation of three days, HCV replication was measured by assaying luciferase activity (using standard luciferase assay substrates and reagents and a Perkin Elmer ViewLux™ ultraHTS microplate imager). […] The inhibitory activity of the compound on luciferase activity was monitored on the Huh-Luc cells, enabling a dose-response curve for each test compound. […]

[2] = target: T1, full-length hepatitis C NS3 protease enzyme with NS4A cofactor (HCV NS3/4A protease) (Hepatitis C virus genotype 1a, UniProt P27958); assay: HCV NS3/4A protease inhibition assay (enzymatic); type: biochemical; conditions: 1 nM enzyme, 25 μM NS4A cofactor, 0.5 μM depsipeptide substrate, 30° C., competitive inhibition model
T1 construct: full-length hepatitis C NS3 protease enzyme
Procedure: The aim of this in vitro assay was to measure the inhibition of HCV NS3/4A protease complexes by the compounds of the present invention. This assay provides an indication of how effective compounds of the present invention would be in inhibiting HCV NS3/4A proteolytic activity.
The inhibition of full-length hepatitis C NS3 protease enzyme was measured essentially as described in Poliakov, 2002 Prot Expression & Purification 25 363 371. Briefly, the hydrolysis of a depsipeptide substrate, Ac-DED(Edans)EEAbuψ[COO]ASK(Dabcyl)-NH2 (AnaSpec, San José, USA), was measured spectrofluorometrically in the presence of a peptide cofactor, KKGSVVIVGRIVLSGK (Åke Engström, Department of Medical Biochemistry and Microbiology, Uppsala University, Sweden). [Landro, 1997 #Biochem 36 9340-9348]. The enzyme (1 nM) was incubated in 50 mM HEPES, pH 7.5, 10 mM DTT, 40% glycerol, 0.1% n-octyl-D-glucoside, with 25 μM NS4A cofactor and inhibitor at 30° C. for 10 min, whereupon the reaction was initiated by addition of 0.5 μM substrate. Inhibitors were dissolved in DMSO, sonicated for 30 sec. and vortexed. The solutions were stored at −20° C. between measurements.
The final concentration of DMSO in the assay sample was adjusted to 3.3%. The rate of hydrolysis was corrected for inner filter effects according to published procedures. [Liu, 1999 Analytical Biochemistry 267 331-335]. […]

T1 sequence (P27958 1027-1657): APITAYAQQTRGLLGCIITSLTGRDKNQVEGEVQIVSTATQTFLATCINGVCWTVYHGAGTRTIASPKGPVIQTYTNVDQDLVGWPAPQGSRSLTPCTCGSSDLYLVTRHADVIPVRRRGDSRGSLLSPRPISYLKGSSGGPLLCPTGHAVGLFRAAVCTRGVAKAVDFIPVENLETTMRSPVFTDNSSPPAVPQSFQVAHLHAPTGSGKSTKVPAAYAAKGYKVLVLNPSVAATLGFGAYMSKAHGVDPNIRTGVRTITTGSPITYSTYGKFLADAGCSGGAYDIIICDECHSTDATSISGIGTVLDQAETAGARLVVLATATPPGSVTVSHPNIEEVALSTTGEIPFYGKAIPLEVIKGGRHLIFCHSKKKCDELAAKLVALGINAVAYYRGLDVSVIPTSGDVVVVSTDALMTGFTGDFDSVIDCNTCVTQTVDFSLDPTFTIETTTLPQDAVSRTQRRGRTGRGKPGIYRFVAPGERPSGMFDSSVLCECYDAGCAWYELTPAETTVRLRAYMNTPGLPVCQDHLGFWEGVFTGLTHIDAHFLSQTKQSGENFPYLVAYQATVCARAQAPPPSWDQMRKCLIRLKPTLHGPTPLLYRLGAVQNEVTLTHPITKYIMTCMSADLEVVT

Structure (SMILES) | EC50 [1] | Ki [2]
COc1ccc2c(O[C@@H]3C[C@H]4C(=O)N[C@]5(C(=O)NS(=O)(=O)N(C)C)C[C@H]5/C=C\CCCCN(C)C(=O)[C@@H]4C3)cc(-c3nc(C(C)C)cs3)nc2c1 [Compound 37, N-[17-[2-(4-isopropylthiazol-2-yl)-7-methoxyquinolin-4-yloxy]-13-methyl-2,14-dioxo-3,13-diazatricyclo[13.3.0.0^4,6]octadec-7-ene-4-carbonyl](dimethylamino)sulfonamide] | 0.3 µM | 24 nM
CCN(C)S(=O)(=O)NC(=O)[C@@]12C[C@H]1/C=C\CCCCN(C)C(=O)[C@@H]1C[C@H](Oc3cc(-c4nc(C(C)C)cs4)nc4cc(OC)ccc34)C[C@H]1C(=O)N2 [Compound 38, N-[17-[2-(4-isopropylthiazol-2-yl)-7-methoxyquinolin-4-yloxy]-13-methyl-2,14-dioxo-3,13-diazatricyclo[13.3.0.0^4,6]octadec-7-ene-4-carbonyl]-[(ethyl)(methyl)amino]sulfonamide] | 0.3 µM | 24 nM
